Results: patent US9907837B2, “Composition for preventing or treating cachexia” (GemVax & KAEL Co., Ltd., priority 2012, dated 2018)

System: TNF-α
Assay: TNF-α ELISA with culture of LPS-stimulated PBMC-derived monocytes
Format: cell-based, human
Conditions: monocytes stimulated with LPS 10 ng/ml 2 hrs, starved 1 hr, 4 uM treated for 2 hrs, cell culture medium
Procedure: PBMC (peripheral blood mononuclear cell) was separated from the blood samples (50 ml) collected from healthy subjects using Ficoll-Paque™ PLUS (GE Healthcare Life Sciences, Piscataway, N.J., USA). PBMCs were then enriched in complete RPMI 1640 medium containing 20% of human serum, followed by transferring to 100 mm polystyrene cell culture plate coated with human serum for 30 mins. […]
To investigate the effect of PEP-1 on TNF-α level in terms of protein expression level, ELISA (enzyme linked immunosorbent assay) was performed. […] After culturing, cell soup was collected, and the amount of TNF-α was measured using ELISA kit (R&D, Minneapolis, Minn., USA) as follows.
TNF measurement uses sandwich ELISA method. […] Again, plate was washed, and avidin/biotin was added for measuring the absorbance. TNF-α level of each sample was quantified using the standard graph calculated from the absorbance of standard solution.
PBMC-derived monocytes were stimulated with endotoxin LPS (10 ng/ml) for 2 hrs, starved for 1 hr using OPTI-MEM, and then 4 uM of FITC, FITC-TAT, PEP 1-FITC and FITC-PEP 1 were treated for 2 hrs. After incubation, TNF-α level was measured with cell culture medium using ELISA.

For Fluorescein Isothiocyanate [FITC], the TNF-α level was 6.2 ng/mL.
